ChEMBL document CHEMBL5154877, “Novel Sphingosine Kinase 1 Inhibitor Suppresses Growth of Solid Tumor and Inhibits the Lung Metastasis of Triple-Negative Breast Cancer” (J Med Chem, 2022)
One block for each molecule: values may come before it.

Tests used:
[1] = molecular target: T1, Sphingosine kinase 2 (Homo sapiens, UniProt Q9NRA0)
T1 sequence (Q9NRA0 whole entry): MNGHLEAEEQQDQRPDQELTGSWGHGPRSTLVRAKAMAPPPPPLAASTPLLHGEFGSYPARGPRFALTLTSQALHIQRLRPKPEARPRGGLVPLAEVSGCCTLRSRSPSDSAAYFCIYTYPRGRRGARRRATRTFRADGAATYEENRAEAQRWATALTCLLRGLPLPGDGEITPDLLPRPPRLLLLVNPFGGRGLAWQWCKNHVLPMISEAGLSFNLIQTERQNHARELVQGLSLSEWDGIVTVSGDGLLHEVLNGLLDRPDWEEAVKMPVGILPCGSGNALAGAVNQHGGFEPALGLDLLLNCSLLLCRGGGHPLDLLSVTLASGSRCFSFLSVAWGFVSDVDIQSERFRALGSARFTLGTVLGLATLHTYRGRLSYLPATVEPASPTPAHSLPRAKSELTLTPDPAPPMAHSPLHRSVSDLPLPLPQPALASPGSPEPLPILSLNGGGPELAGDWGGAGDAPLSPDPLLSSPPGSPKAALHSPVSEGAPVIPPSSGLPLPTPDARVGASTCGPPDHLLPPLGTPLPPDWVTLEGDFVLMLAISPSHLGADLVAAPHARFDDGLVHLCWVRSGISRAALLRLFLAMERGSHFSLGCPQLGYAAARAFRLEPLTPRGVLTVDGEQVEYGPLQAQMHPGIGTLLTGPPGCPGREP

[2] = Tmax in mouse at 20 mg/kg, po; assay type: ADME, organism-based; settings: in vivo
[3] = Cmax in mouse at 20 mg/kg, po; assay type: ADME, organism-based; set-up: dose 20 mg/kg, route po; settings: in vivo
[4] = AUClast in mouse at 20 mg/kg, po; assay type: ADME, organism-based; set-up: time 0 - last, dose 20 mg/kg, route po; settings: in vivo
[5] = AUClast in mouse at 2 mg/kg, iv; assay type: ADME, organism-based; set-up: time 0 - last, dose 2 mg/kg, route iv; settings: in vivo
[6] = Half life in mouse at 20 mg/kg, po; assay type: ADME, organism-based; settings: in vivo
[7] = Half life in mouse at 2 mg/kg, iv; assay type: ADME, organism-based; settings: in vivo
[8] = Clearance in mouse at 2 mg/kg, iv; assay type: ADME, organism-based; settings: in vivo
[9] = Oral bioavailability in mouse at 20 mg/kg; assay type: ADME, organism-based; settings: in vivo

IC50 [1]: > 10 µM
SMILES: Cc1cc(CS(=O)(=O)c2ccccc2)cc(OCc2ccc(CN(C)CCO)cc2)c1

IC50 [1]: > 10 µM
SMILES: Cc1cc(CS(=O)(=O)c2ccccc2)cc(OCCCCCCCN2CCC[C@@H]2CO)c1

IC50 [1]: > 10 µM
SMILES: Cc1cc(CS(=O)(=O)c2ccc([N+](=O)[O-])cc2)cc(OCc2ccc(CN3CCC[C@@H]3CO)cc2)c1

Tmax [2]: 0.25 h
Cmax [3]: 83.6 ng/mL
AUC(0-t) [4]: 100 ng·h/mL
AUC(0-t) [5]: 201 ng·h/mL
half-life [6]: 1.79 h
half-life [7]: 1.79 h
clearance [8]: 164 mL/min/kg
bioavailability [9]: 4.95%
IC50 [1]: > 10 µM
SMILES: Cc1cc(CS(=O)(=O)C2CC2)cc(OCc2ccc(CN3CCC[C@@H]3CO)cc2)c1
